In patent US12065416B2, “cGAS antagonist compounds” (IMMUNESENSOR THERAPEUTICS, INC., priority 2016, dated 2024):

molecular target: T1, recombinant cGAS (aa147-522) (Homo sapiens, UniProt Q8N884); assay: In vitro assay for inhibition of cGAS activity (ATP consumption, Kinase Glo); assay type: biochemical; details: 37° C. 20 minutes, read-out: Activity (Inhibition of cGAS enzyme activity in vitro, IC50)
T1 construct: recombinant cGAS (aa147-522); His6-SUMO (N, cleaved yes); made in house; host or cells: E. coli BL21/pLys
Protocol: cDNA encoding full-length or amino acids 147-520 of human cGAS is inserted into a modified pET28a vector containing an in-frame His6-SUMO tag. The E. coli strain BL21/pLys harboring the plasmid is induced with 0.5 mM IPTG at 18° C. overnight. His6-SUMO tag was removed by a SUMO proease following purification of the HiS-SUMO-cGAS as described previously (Sun et al, 2013, Science 339, 786).
A40 μL mixture containing 1.5 ng/μL of recombinant cGAS (aa147-522) and serial dilutions of a test compound or DMSO was added to a 96-well plate and incubated at 37° C. for 20 minutes. At the end of reaction, 20 μL of Kinase Glo (Promega) was added and chemiluminescence measured with a luminometer. Inhibitory effect of a compound is evaluated by plotting percentage of ATP consumption against logarithm of compound concentrations. IC50 value was calculated using Graphpad (Sigma).

T1 sequence (Q8N884 147-522): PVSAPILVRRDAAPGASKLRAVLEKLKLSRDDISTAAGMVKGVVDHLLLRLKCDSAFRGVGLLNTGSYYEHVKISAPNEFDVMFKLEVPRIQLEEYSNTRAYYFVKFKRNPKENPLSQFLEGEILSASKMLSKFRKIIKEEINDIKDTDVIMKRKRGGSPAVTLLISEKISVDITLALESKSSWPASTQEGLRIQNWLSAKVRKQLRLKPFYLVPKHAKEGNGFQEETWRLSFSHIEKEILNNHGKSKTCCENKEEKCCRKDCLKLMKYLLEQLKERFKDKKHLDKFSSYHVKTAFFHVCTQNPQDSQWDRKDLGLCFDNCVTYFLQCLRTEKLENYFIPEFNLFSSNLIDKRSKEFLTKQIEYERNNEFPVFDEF

Compound	IC50
CC(Oc1cc(/C=C2\SC(=O)N(C)C2=O)c(Br)c(F)c1Oc1cnc(N)s1)c1cnc(N)nc1 (stereo not shown) [ExB10]	0.5 to 10 µM
COc1cc(/C=c2\sc3n(c2=O)CCCN=3)c(Br)cc1O [Ex42]	0.5 to 10 µM
O=C1/C(=C/c2cc(C(F)(F)F)c(O)cc2Br)Sc2ncccc21 [ExB17]	≤ 0.5 µM
CC(C)CNc1ncc(COc2cc(/C=C3\SC(=O)N(C)C3=O)c(Br)cc2O)cn1 [Ex151]	0.5 to 10 µM
CC(C)CNc1cncc(COc2cc(/C=C3\SC(=O)N(C)C3=O)c(Br)cc2O)c1 [Ex229]	≥ 10 µM
CN1C(=O)S/C(=C\c2cc(OCc3ccc(NC(=O)c4cccnc4)nc3)c(O)cc2Br)C1=O [Ex55]	0.5 to 10 µM
CN1C(=O)S/C(=C\c2cc(OCc3cnc(-c4ccncc4)nc3)c(O)cc2Br)C1=O [Ex146]	≤ 0.5 µM
CC(Oc1cc(/C=C2\SC(=O)N(C)C2=O)c(Br)c(F)c1O)C(O)c1cncnc1N (stereo not shown) [ExB37]	≤ 0.5 µM
CN1C(=O)S/C(=C\c2cc(OCc3cnc(Nc4ccncc4)nc3)c(O)cc2Br)C1=O [Ex160]	≤ 0.5 µM
CCc1cc(/C=C2\Sc3ncccc3C2=O)c(Br)cc1O [Ex79]	≤ 0.5 µM
CSc1ncncc1C(=O)C(C)Oc1cc(/C=C2\SC(=O)N(C)C2=O)c(Br)c(F)c1O (stereo not shown) [ExB36]	≥ 10 µM
CN1C(=O)S/C(=C\c2cc(OCc3cnc(S)nc3)c(O)cc2Br)C1=O [Ex219]	0.5 to 10 µM
CN1C(=O)S/C(=C\c2cc(OCc3cnc(-c4ccccc4)nc3)c(O)cc2Br)C1=O [Ex145]	0.5 to 10 µM
COc1cc(/C=C2\SC(=O)N(C)C2=O)c(Br)cc1NS(C)(=O)=O [Ex22]	≥ 10 µM
CN1C(=O)S/C(=C\c2cc(OCc3ccc4ncccc4c3)c(O)cc2Br)C1=O [Ex174]	≥ 10 µM
O=C1NC(=O)/C(=C/c2ccncc2)N1 [Ex14]	0.5 to 10 µM
CN1C(=O)S/C(=C\c2cc(OCC(=O)Nc3nncs3)c(O)c(F)c2Br)C1=O [ExB1]	0.5 to 10 µM
COCCNc1ncc(C(C)Oc2cc(/C=C3\SC(=O)N(C)C3=O)c(Br)cc2O)cn1 (stereo not shown) [Ex182]	0.5 to 10 µM
CN1C(=O)S/C(=C\c2cc(Oc3ccnc(N)c3)c(O)cc2Br)C1=O [Ex101]	0.5 to 10 µM

Compound	IC50
Nc1ncc(COc2cc(/C=C3\Sc4ncccc4C3=O)c(Br)cc2O)c(C(F)(F)F)n1 [Ex118]	≤ 0.5 µM
COc1cc(/C(Br)=C2\SC(=O)N(C)C2=O)c(Br)cc1O [Ex20]	≥ 10 µM
COc1cc(/C=c2\sc3n(c2=O)CCN=3)c(Br)cc1O [Ex40]	0.5 to 10 µM
CC(C)c1cc(/C=C2\Sc3ncccc3C2=O)c(Br)cc1O [ExB19]	≥ 10 µM
CSc1ncc(COc2cc(/C=C3\SC(=O)N(C)C3=O)c(Br)cc2O)c(SC)n1 [Ex100]	≥ 10 µM
COc1ncc(COc2cc(/C=C3\SC(=O)N(C)C3=O)c(Br)cc2O)cn1 [Ex143]	0.5 to 10 µM
C/N=C1/S/C(=C\c2cc(OC)c(O)cc2Br)C(=O)N1C [ExB22]	≥ 10 µM
CN1C(=O)S/C(=C\c2cc(OCc3cnc(Nc4ccccc4)nc3)c(O)cc2Br)C1=O [Ex158]	0.5 to 10 µM
Nc1ncc(/C=C/c2cc(/C=C3\Sc4ncccc4C3=O)c(Br)cc2O)cn1 [ExB42]	≤ 0.5 µM
CC(Oc1cc(/C=C2\SC(=O)N(C)C2=O)c(Br)cc1O)c1cnc(Cl)nc1 (stereo not shown) [Ex104]	0.5 to 10 µM
CN1C(=O)S/C(=C\c2cc(OCc3cnc(N(C)C)nc3)c(O)cc2Br)C1=O [Ex162]	≥ 10 µM
CN1C(=O)S/C(=C\c2cc(OCc3cncc(NCc4ccncc4)c3)c(O)cc2Br)C1=O [Ex228]	≥ 10 µM
[2H]C(C)(Oc1cc(/C=C2\SC(=O)N(C)C2=O)c(Br)c(F)c1O)c1cnc(N)nc1 (stereo not shown) [ExB29]	≤ 0.5 µM
O=C1NC(=O)/C(=C/c2cnccn2)S1 [Ex7]	≥ 10 µM
CN1C(=O)S/C(=C\c2cc(OCc3cncc4ccccc34)c(O)cc2Br)C1=O [Ex176]	0.5 to 10 µM
Cc1ncc(COc2cc(/C=C3\SC(=O)N(C)C3=O)c(Br)cc2O)cn1 [Ex186]	0.5 to 10 µM
Cc1nc(N)nc(C)c1COc1cc(/C=C2\SC(=O)N(C)C2=O)c(Br)cc1O [Ex223]	0.5 to 10 µM
CN1C(=O)S/C(=C\c2cc(OCc3cnc(NCc4ccncc4)nc3)c(O)c(F)c2Br)C1=O [Ex190]	≤ 0.5 µM
